Experimental data: patent US20230002334A1, “TRPM8 MODULATORS” (Givaudan SA, priority 2019, published 2023)

What follows are compounds tested against T1, hTRPM8 (Homo sapiens, UniProt Q7Z2W7) (assay: Assay on TRPM8 modulators: calcium imaging (Fluo-4, Flexstation) in HEK293 cell line stably expressing hTRPM8). Conditions: HEK293 cells stably expressing hTRPM8, calcium influx, sigmoidal dose-response fit; read-out: EC50.
T1 construct: expressed in transfected cells
Type: cell-based
Experimental: A HEK293 cell line stably expressing hTRPM8 was generated according to Klein et al., (Chem. Senses 36: 649-658, 2011) and receptor activation was monitored by calcium imaging in a Flexstation. For Ca-imaging assays of TRPM8 channel activation, cells were seeded on day 0 at a density of 12000 cells per well in Dulbecco's modified Eagle medium (DMEM) containing 9% foetal bovine serum in black, clear bottom 96-well plates that had been coated with 0.001% polyethyleneimine (molecular weight=60 000, Acros Organics). On day 2, agonists were evaluated via calcium imaging using Fluo-4. Briefly, growth medium was discarded, and the cells were incubated in the dark for 1 h at 37° C. in 50 μL loading buffer consisting of 2.7 μM Fluo-4 AM (Invitrogen) and […] probenecid (Sigma-Aldrich) in DMEM (without serum). After incubation, the plates were washed five times with 100 μL of assay buffer (in mM: 130 NaCl, 5 KCl, 10 HEPES, 2 CaCl2, and 10 glucose, pH7.4.) and further incubated in the dark at room temperature for 30 min. The cells were then washed five times with 100 μL assay buffer and then calcium influx to serial dilutions of inventive compounds were measured in a Flexstation 3 (Molecular Devices). Receptor activation was initiated following addition of 20 μl of a 10-fold concentrated ligand stock solution, which is also prepared in assay buffer. Fluorescence was continuously monitored for 15 seconds prior to ligand addition and for 105 seconds after ligand addition, for a total of 120 seconds. Maximal receptor activation in relation to solvent control and relative to 31.6 μM menthol is determined. Data from serial dilutions were processed with a KNIME workflow to fit a sigmoidal dose-response curve and to extrapolate EC50 values.

T1 sequence (Q7Z2W7 whole entry): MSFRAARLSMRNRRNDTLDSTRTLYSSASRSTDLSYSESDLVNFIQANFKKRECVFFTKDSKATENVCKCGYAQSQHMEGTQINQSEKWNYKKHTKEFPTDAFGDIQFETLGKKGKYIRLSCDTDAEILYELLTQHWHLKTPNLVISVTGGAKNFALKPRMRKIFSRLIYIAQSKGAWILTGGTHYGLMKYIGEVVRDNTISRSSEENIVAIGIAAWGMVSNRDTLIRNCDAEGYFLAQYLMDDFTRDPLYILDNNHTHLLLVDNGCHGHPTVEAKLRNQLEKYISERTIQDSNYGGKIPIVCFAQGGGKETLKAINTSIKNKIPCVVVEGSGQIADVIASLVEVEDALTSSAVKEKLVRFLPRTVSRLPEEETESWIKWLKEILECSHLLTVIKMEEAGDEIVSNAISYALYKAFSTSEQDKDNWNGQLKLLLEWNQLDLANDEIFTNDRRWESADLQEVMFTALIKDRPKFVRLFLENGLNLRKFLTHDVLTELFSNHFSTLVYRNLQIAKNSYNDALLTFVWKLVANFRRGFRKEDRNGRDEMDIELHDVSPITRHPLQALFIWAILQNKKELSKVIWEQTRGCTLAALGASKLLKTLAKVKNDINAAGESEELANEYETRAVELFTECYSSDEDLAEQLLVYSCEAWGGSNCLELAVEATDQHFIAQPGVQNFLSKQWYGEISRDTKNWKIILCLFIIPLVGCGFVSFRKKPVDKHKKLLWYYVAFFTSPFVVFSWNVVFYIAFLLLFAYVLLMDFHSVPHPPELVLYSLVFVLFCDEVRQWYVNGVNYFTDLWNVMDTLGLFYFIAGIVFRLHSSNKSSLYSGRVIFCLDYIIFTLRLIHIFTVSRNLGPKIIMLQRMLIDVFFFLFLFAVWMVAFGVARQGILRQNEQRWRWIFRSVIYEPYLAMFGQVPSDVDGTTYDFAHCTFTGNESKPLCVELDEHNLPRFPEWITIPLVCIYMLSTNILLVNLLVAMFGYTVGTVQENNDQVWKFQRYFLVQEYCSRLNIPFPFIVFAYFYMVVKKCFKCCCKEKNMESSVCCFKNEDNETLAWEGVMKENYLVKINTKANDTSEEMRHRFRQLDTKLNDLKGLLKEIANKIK

EC50 [µM] | SMILES
1 to 35 | CSc1ccccc1[C@]1(C)C[C@@H](C)[C@@H]2[C@@H](C1)C(C)(C)ON2C (racemic) [Compound 31, rac-(3aR,5R,7R,7aR)-1,3,3,5,7-pentamethyl-5-(2-(methylthio)phenyl)octahydrobenzo[c]isoxazole]
1 to 35 | CCN1OC(C)(C)[C@@H]2C[C@](C)(CC=C(C)C)C[C@@H](C)[C@H]21 (racemic) [Compound 32, rac-(3aR,5R,7R,7aR)-1-ethyl-3,3,5,7-tetramethyl-5-(3-methylbut-2-en-1-yl)octahydrobenzo[c]isoxazole]
0.3 to 1 | CCN1OC(C)(C)[C@@H]2C[C@](C)(c3ccccc3C)C[C@@H](C)[C@H]21 (racemic) [Compound 33, rac-(3aR,5R,7R,7aR)-1-ethyl-3,3,5,7-tetramethyl-5-(o-tolyl)octahydrobenzo[c]isoxazole]
0.3 to 1 | Cc1c(Cl)cccc1[C@]1(C)C[C@@H](C)[C@@H]2[C@@H](C1)C(C)(C)ON2C (racemic) [Compound 34, rac-(3aR,5R,7R,7aR)-5-(3-chloro-2-methylphenyl)-1,3,3,5,7-pentamethyloctahydrobenzo[c]isoxazole]
1 to 35 | Cc1cc(F)ccc1[C@]1(C)C[C@@H](C)[C@@H]2[C@@H](C1)C(C)(C)ON2C (racemic) [Compound 35, rac-(3aR,5R,7R,7aR)-5-(4-fluoro-2-methylphenyl)-1,3,3,5,7-pentamethyloctahydrobenzo[c]isoxazole]
1 to 35 | COc1ccc([C@]2(C)C[C@@H](C)[C@@H]3[C@@H](C2)C(C)(C)ON3C)cc1 (racemic) [Compound 36, rac-(3aR,5R,7R,7aR)-5-(4-methoxyphenyl)-1,3,3,5,7-pentamethyloctahydrobenzo[c]isoxazole]
0.05 to 0.3 | CSc1ccccc1[C@@]1(C)C[C@@H]2[C@@H]([C@@H](C)C1)N(C)OC2(C)C (racemic) [Compound 37, rac-(3aR,5R,7S,7aR)-1,3,3,5,7-pentamethyl-5-(2-(methylthio)phenyl)octahydrobenzo[c]isoxazole]
0.05 to 0.3 | Cc1cc(C)c([C@@]2(C)C[C@@H]3[C@@H]([C@@H](C)C2)N(C)OC3(C)C)cc1C (racemic) [Compound 38, rac-(3aR,5R,7S,7aR)-1,3,3,5,7-pentamethyl-5-(2,4,5-trimethylphenyl)octahydrobenzo[c]isoxazole]

Further lines, the compound ahead of its results:

SMILES | EC50 [µM]
CCCCC[C@@H]1CC[C@@H]2[C@@H](C1)C(C)(C)ON2C (racemic) [Compound 23, rac-(3aR,5R,7aR)-1,3,3-trimethyl-5-pentyloctahydrobenzo[c]isoxazole] | 0.3 to 1
CCC[C@@H]1CC[C@@H]2[C@@H](C1)C(C)(C)ON2C (racemic) [Compound 24, rac-(3aR,5R,7aR)-1,3,3-trimethyl-5-propyloctahydrobenzo[c]isoxazole] | 0.3 to 1
CCC[C@@H]1CC[C@@H]2[C@@H](C1)C(C)(C)ON2CC (racemic) [Compound 25, rac-(3aR,5R,7aR)-1-ethyl-3,3-dimethyl-5-propyloctahydrobenzo[c]isoxazole] | 0.3 to 1
CCCC[C@@H]1CC[C@@H]2[C@@H](C1)C(C)(C)ON2C (racemic) [Compound 27, rac-(3aR,5R,7aR)-5-butyl-1,3,3-trimethyloctahydrobenzo[c]isoxazole] | 0.3 to 1
CCCC[C@@H]1CC[C@@H]2[C@@H](C1)C(C)(C)ON2CC (racemic) [Compound 28, rac-(3aR,5R,7aR)-5-butyl-1-ethyl-3,3-dimethyloctahydrobenzo[c]isoxazole] | 0.3 to 1
CCCC[C@@H]1CC[C@@H]2[C@@H](C1)C(C)(C)ON2C(C)C (racemic) [Compound 29, rac-(3aR,5R,7aR)-5-butyl-1-isopropyl-3,3-dimethyloctahydrobenzo[c]isoxazole] | 1 to 35
CC[C@@H]1CC[C@@H]2[C@@H](C1)C(C)(C)ON2C(C)C (racemic) [Compound 30, rac-(3aR,5R,7aR)-5-ethyl-1-isopropyl-3,3-dimethyloctahydrobenzo[c]isoxazole] | 1 to 35
